Assay results: patent US20240246918A1, “COMPOUNDS AND COMPOSITIONS AS EIF4E INHIBITORS AND THE USES THEREOF” (Ribometrix, Inc., priority 2022, published 2024)
Like-named read-outs stand apart in the source and are kept apart here.

Assays:
[1] = system: COLO 205 colorectal tumor cells; experiment: Tumor cell viability inhibition assay (CellTiter-Glo 2.0, 72 hours); type: cell-based; details: COLO 205 cell viability
Outline: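 IC50 derived by 4-parameter fitting after normalizing luminescence to DMSO and max-inhibition wells. Compounds tested as 11 concentrations in 4-fold steps on COLO 205 cells seeded at 1500 per well in RPMI-1640/10% FBS; ATP content measured with CellTiter-Glo 2.0 after 72 h.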

[2] = system: cap-dependent translation in Flp-In-293 reporter cells; experiment: Cellular cap-dependent translation inhibition assay (dual luciferase assay, DLA; Fluc/Rluc ratio, 24 hours); type: cell-based
human eIF4E protein = biological target: T1, human eIF4E protein (Homo sapiens, UniProt P06730); experiment: Biochemical competitive binding assay (TR-FRET competition, EDA-m7GDP-ATTO-647N probe); details: read-out: hEIF4E TR-FRET IC50
T1 construct: purchased Novus NBP-45314
T1 sequence (P06730 whole entry): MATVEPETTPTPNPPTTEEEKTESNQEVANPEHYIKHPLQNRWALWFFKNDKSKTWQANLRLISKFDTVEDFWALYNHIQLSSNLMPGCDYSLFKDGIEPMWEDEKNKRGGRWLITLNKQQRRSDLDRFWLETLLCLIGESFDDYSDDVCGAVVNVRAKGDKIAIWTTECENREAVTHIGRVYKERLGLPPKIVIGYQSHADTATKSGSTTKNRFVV
Outline: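 IC50 values come from 4-parameter fits of the normalized 665/620 nm TR-FRET ratio. Compound was first incubated 15 min with 4 nM recombinant His-eIF4E bound to 2.5 nM Eu-anti-His antibody, then 15 min with 5 nM m7GDP-ATTO-647N tracer, in pH 7.5 HEPES buffer with 100 mM KCl, Tween-20 and BSA.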

[3] = Homo sapiens, Flp-In-293, 24 h, dual luciferase assay, Flp-In-293 reporter cells, 24 hours, Fluc/Rluc ratio, read-out: DLA 205 IC50
[4] = dual luciferase assay, Flp-In-293 reporter cells, 24 hours, Fluc/Rluc ratio, read-out: DLA 205 IC50
[5] = Homo sapiens, Flp-In-293, 24 h, read-out: DLA 205 IC50, dual luciferase assay, Flp-In-293 reporter cells, 24 hours, Fluc/Rluc ratio

| SMILES | IC50 ([1]; Homo sapiens, COLO 205, 72 h) | IC50 [2, 3] | IC50 (human eIF4E protein) | IC50 [1] | IC50 [2, 4] | IC50 ([1]; Homo sapiens) | IC50 [2, 5] |
| --- | --- | --- | --- | --- | --- | --- | --- |
| Cc1cc(-c2cc(Cl)ccc2OCCn2c(C)nc3c(c2=O)CC(N(C)C2CCCC2(F)F)CC3)c2scc(C(=O)O)c2n1 (single isomer, unassigned) [Compound 300] | < 5 µM | < 1 µM | < 0.1 µM |  |  |  |  |
| Cc1sc2c(-c3cc(Cl)ccc3OCCn3c(C)nc4c(c3=O)CC(N(C)CC3CC(F)(F)C3)CC4)cn(C)c(=O)c2c1C(=O)O (single isomer, unassigned) [Compound 252] |  |  | < 0.1 µM | 5 to 20 µM | 1 to 5 µM |  |  |
| Cc1cc(-c2cc(Cl)ccc2OCCn2c(C)nc3c(c2=O)CC(N2CC(C(F)(F)F)C2)CC3)c2scc(C(=O)NS(C)(=O)=O)c2n1 (single isomer, unassigned) [Compound 322] |  |  | < 0.1 µM | < 5 µM | < 1 µM |  |  |
| Cc1nc2c(c(=O)n1CC#Cc1ccc(Cl)cc1-c1ccnc3c(C(=O)O)csc13)CC(N(C)C1CC1)CC2 (stereo not drawn) [Compound 290] | < 5 µM | < 1 µM | < 0.1 µM |  |  |  |  |
| Cc1nc2c(c(=O)n1CC#Cc1ccc(Cl)cc1-c1ccnc3c(C(=O)NS(C)(=O)=O)csc13)CC(N1CC(F)C1)CC2 (stereo not drawn) [Compound 325] | < 5 µM | < 1 µM | < 0.1 µM |  |  |  |  |
| COC1CCN(C2CCc3nc(C)n(CCOc4ccc(Cl)cc4-c4cc(C)nc5c(C(=O)NS(C)(=O)=O)csc45)c(=O)c3C2)CC1 (stereo not drawn) [Compound 79] | < 5 µM | < 1 µM | < 0.1 µM |  |  |  |  |
| Cc1nc2c(c(=O)n1CC#Cc1ccc(Cl)cc1-c1ccnc3c(C(=O)O)csc13)CC(N(C)C1CCN(CC(F)(F)F)CC1)CC2 (stereo not drawn) [Compound 275] | < 5 µM | < 1 µM | < 0.1 µM |  |  |  |  |
| Cc1cc(-c2cc(Cl)ccc2OCCn2c(C)nc3c(c2=O)CC(N2CCC(F)(F)CC2)CC3)c2scc(C(=O)O)c2n1 (stereo not drawn) [Compound 32] | < 5 µM | < 1 µM | < 0.1 µM |  |  |  |  |
| Cc1cc(-c2cc(Cl)ccc2OCCn2c(C)nc3c(c2=O)C[C@@H](N2CCC[C@@H](F)C2)CC3)c2scc(C(=O)O)c2n1 (single isomer, unassigned) [Compound 324] | < 5 µM | < 1 µM | < 0.1 µM |  |  |  |  |
| CNC1CCc2nc(C)n(CCOc3ccc(Cl)cc3-c3cccc(C(=O)O)c3)c(=O)c2C1 (stereo not drawn) [Compound 2] |  |  | < 0.1 µM |  |  | < 5 µM | > 5 µM |
| Cc1cc(-c2cc(Cl)ccc2OCCn2c(C)nc3c(c2=O)CC(N2CC(F)(F)C2)CC3)c2scc(C(=O)O)c2n1 (stereo not drawn) [Compound 49] | 5 to 20 µM | 1 to 5 µM | 0.1 to 0.5 µM |  |  |  |  |
| Cc1cc(-c2cc(Cl)ccc2OCCn2c(C)nc3c(c2=O)CC(N(C)C(=O)C2CN(CC(F)(F)F)C2)CC3)c2scc(C(=O)O)c2n1 (stereo not drawn) [Compound 72] | > 20 µM | > 5 µM | < 0.1 µM |  |  |  |  |
| Cc1cc(-c2cc(Cl)ccc2OCCn2c(C)nc3c(c2=O)CC(N(CC(F)(F)F)C2CC2)CC3)c2scc(C(=O)NS(C)(=O)=O)c2n1 (single isomer, unassigned) [Compound 308] | 5 to 20 µM | 1 to 5 µM | 0.1 to 0.5 µM |  |  |  |  |
| CO[C@H]1CCN([C@@H]2CCc3nc(C)n(CCOc4ccc(Cl)cc4-c4cc(C)nc5c(C(=O)O)csc45)c(=O)c3C2)C1 (single isomer, unassigned) [Compound 48] | < 5 µM | < 1 µM | < 0.1 µM |  |  |  |  |
| Cc1cc(-c2cc(Cl)ccc2OCCn2c(C)nc3c(c2=O)CC(N2CC(F)(F)C2)CC3)c2sccc2n1 (single isomer, unassigned) [Compound 341] |  |  | 0.5 to 5 µM | > 20 µM | > 5 µM |  |  |
| Cc1cc(-c2cc(Cl)ccc2OCCn2c(C)nc3c(c2=O)CC(N2CCC2)CC3)c2scc(C(=O)O)c2n1 (stereo not drawn) [Compound 8] |  |  | < 0.1 µM |  |  | 5 to 20 µM | < 1 µM |

| SMILES | IC50 ([1]; Homo sapiens, COLO 205, 72 h) | IC50 [2, 3] | IC50 (human eIF4E protein) | IC50 [1] | IC50 [2, 4] | IC50 ([1]; Homo sapiens) | IC50 [2, 5] |
| --- | --- | --- | --- | --- | --- | --- | --- |
| Cc1cc(-c2cc(Cl)ccc2OCCn2c(C)nc3c(c2=O)CC(N2CC4COCC4C2)CC3)c2scc(C(=O)O)c2n1 (stereo not drawn) [Compound 19] | < 5 µM | < 1 µM | < 0.1 µM |  |  |  |  |
| Cc1cc(-c2cc(Cl)ccc2OCCn2c(C)nc3c(c2=O)CC(N(C)CC(F)(F)F)CC3)c2scc(C(=O)O)c2n1 (stereo not drawn) [Compound 54] | 5 to 20 µM | 1 to 5 µM | < 0.1 µM |  |  |  |  |
| Cc1cc(-c2cc(Cl)ccc2OCCn2c(C)nc3c(c2=O)CC(N(C2CC2)C2CC(F)(F)C2)CC3)c2scc(C(=O)O)c2n1 (stereo not drawn) [Compound 76] | < 5 µM | < 1 µM | < 0.1 µM |  |  |  |  |
| Cc1cc(-c2cc(Cl)ccc2OCCn2c(C)nc3c(c2=O)CC(N2CCCC(F)(F)C2)CC3)c2scc(C(=O)O)c2n1 (stereo not drawn) [Compound 50] | < 5 µM | < 1 µM | < 0.1 µM |  |  |  |  |
| Cc1cc(-c2cc(Cl)ccc2OCCn2c(C)nc3c(c2=O)CC(N(C)C2(c4ccc(F)cc4)CC2)CC3)c2scc(C(=O)O)c2n1 (single isomer, unassigned) [Compound 280] | 5 to 20 µM | 1 to 5 µM | 0.1 to 0.5 µM |  |  |  |  |
| Cc1cc(-c2cc(Cl)ccc2OCCn2c(C)nc3c(c2=O)C[C@@H](N2CC[C@H](F)C2)CC3)c2scc(C(=O)NS(C)(=O)=O)c2n1 (single isomer, unassigned) [Compound 347] | < 5 µM | < 1 µM | < 0.1 µM |  |  |  |  |
| Cc1cc(-c2cc(Cl)ccc2OCCn2c(C)nc3c(c2=O)CC(N2CC(N4CCOCC4)C2)CC3)c2scc(C(=O)O)c2n1 (stereo not drawn) [Compound 17] | 5 to 20 µM | 1 to 5 µM | < 0.1 µM |  |  |  |  |
| Cc1cc(-c2cc(Cl)ccc2OCCn2c(C)nc3c(c2=O)CC(N(C)C(=O)C2CCN(C)CC2)CC3)c2scc(C(=O)NS(C)(=O)=O)c2n1 (stereo not drawn) [Compound 84] | > 20 µM | > 5 µM | < 0.1 µM |  |  |  |  |
| Cc1cc(-c2cc(Cl)ccc2OCCn2c(C)nc3c(c2=O)CC(N(C2CC2)C2CC2)CC3)c2scc(C(=O)NS(C)(=O)=O)c2n1 (single isomer, unassigned) [Compound 291] | < 5 µM | < 1 µM | < 0.1 µM |  |  |  |  |
| Cc1cc(-c2cc(Cl)ccc2OCCn2c(C)nc3c(c2=O)CC(N(C)C)CC3)c2scc(C(=O)NS(C)(=O)=O)c2n1 (stereo not drawn) [Compound 39, 7-[5-chloranyl-2-[2-[6-[di(methyl)amino]-2-methyl-4-oxidanylidene-5,6,7,8-tetrahydroquinazolin-3-yl]ethoxy]phenyl]-5-methyl-N-methylsulfonyl-thieno[3,2-b]pyridine-3-carboxamide; 2,2,2-tris(fluorenyl)acetic acid] | < 5 µM | < 1 µM | < 0.1 µM |  |  |  |  |
| Cc1cc(-c2cc(Cl)ccc2OCCn2c(C)nc3c(c2=O)CC(N(C)C2CCN(CC(F)(F)F)CC2)CC3)c2scc(C(=O)O)c2n1 (stereo not drawn) [Compound 276] | < 5 µM | < 1 µM | < 0.1 µM |  |  |  |  |
| Cc1cc(-c2cc(Cl)ccc2OCCn2c(C)nc3c(c2=O)CC(N(C)C2CC2)CC3)c2sccc2n1 (single isomer, unassigned) [Compound 306] | 5 to 20 µM |  | 0.5 to 5 µM |  | > 5 µM |  |  |
| Cc1nc2c(c(=O)n1CC#Cc1ccc(Cl)cc1-c1ccnc3c(C(=O)O)csc13)C[C@@H](N1CC[C@@H](F)C1)CC2 (single isomer, unassigned) [Compound 327] | < 5 µM | < 1 µM | < 0.1 µM |  |  |  |  |
| Cc1cc(-c2cc(Cl)ccc2OCCn2c(C)nc3c(c2=O)CC(N2CC4(CCN(C)C4)C2)CC3)c2scc(C(=O)O)c2n1 (stereo not drawn) [Compound 21] | > 20 µM | > 5 µM | < 0.1 µM |  |  |  |  |
| Cc1cc(-c2cc(Cl)ccc2OCCn2c(C)nc3c(c2=O)CC(N(C2CCC2)C2CC2)CC3)c2scc(C(=O)O)c2n1 (stereo not drawn) [Compound 97] | < 5 µM | < 1 µM | < 0.1 µM |  |  |  |  |
